Data reported in patent US20250109141A1, “BRD4 PROTEIN DEGRADER COMPOUND, AND PREPARATION METHOD AND USE THEREOF” (Miracure Biotechnology Limited, priority 2023, published 2025).
Where two headings read alike, the source gives them in different places.

Tests used:
LNCaP = test: Cell proliferation assay (CellTiterGlo, 72 h), LNCaP; type: cell-based; conditions: LNCap cells, 72 h compound treatment, read-out: LNCap ATP average IC50
Method: The cell line used was 22RV1 or LNCaP, and the medium was RPMI-1640 containing 10% FBS and antibiotics. All incubations were performed at 37° C. in a humidified carbon dioxide incubator.
On day 1, cells were digested with 0.25% trypsin (containing EDTA) and collected by centrifugation.
(§1) The cells were seeded in a 96-well plate (white wall/transparent bottom) at 5000 cells/well and cultured overnight.
(§2) On day 2, A stock solution of the compound at a concentration of 10 mM was subjected to an 8-fold serial dilution to obtain 8 concentration points. 2 μL of the compound solution at each concentration point was added to 98 μL of fresh medium, and the mixture was mixed homogeneously. Then, 5 μL of the compound solution diluted in the medium at each concentration point was added to 100 μL of overnight medium containing the cells, and 2 replicates were set for each concentration. The mixture was cultured for 72 h.
(§3) After 72 h of compound treatment, the plate was equilibrated to room temperature, 100 μL of CellTiterGlo (Promega) was added. The mixture was mixed homogeneously for 2 min, left to stand at room temperature for 10 min, and then read for luminescence values on a SpectraMax M5 microplate reader to evaluate cell viability. The positive control was 1% Tween-20 and the negative control was 0.1% DMSO. IC50 was generated by 4-parameter non-linear regression fitting in GraphPad Prism.

BRD4 = BRD4 (Homo sapiens, UniProt O60885); test: BRD4 degradation assay (Western-blot / Simple Western) in 22RV1; conditions: 22RV1 cells, target content as percentage of control (DMSO = 100%)
22RV1 = test: Cell proliferation assay (CellTiterGlo, 72 h), 22RV1; type: cell-based; conditions: read-out: 22Rv1 ATP average IC50
Method: All incubations were performed at 37° C. in a humidified carbon dioxide incubator.
as §1, §2, §3

[1] = Homo sapiens, 22Rv1 cells, 72 h compound treatment, CellTiterGlo

Structure (SMILES) | IC50 (LNCaP; Homo sapiens) | BRD4 degradation of 22RV1 (200 nM 5 h) (BRD4) | IC50 (22RV1; Homo sapiens, 22Rv1, 72 h) | IC50 (22RV1; [1]) | IC50 (LNCaP) | IC50 (22RV1; 22Rv1 cells, 72 h compound treatment, CellTiterGlo)
Cc1sc2c(c1C)C(c1ccc(C#CCN)cc1)=N[C@@H](Cc1nccs1)c1nnc(C)n1-2 [Compound 9135] | < 0.05 µM | B (20%<B<50%) | 0.05 to 0.2 µM | – | – | –
Cc1sc2c(c1C)C(c1ccc(/C=C/CNO)cc1)=N[C@@H](CC(=O)OC(C)(C)C)c1nnc(C)n1-2 [Compound 9011] | < 0.05 µM | A (A<20%) | – | < 0.05 µM | – | –
Cc1sc2c(c1C)C(c1ccc(C#CCN)cc1)=N[C@@H](Cc1nnc(C(C)C)o1)c1nnc(C)n1-2 [Compound 9160] | < 0.05 µM | C (50%<C<80) | < 0.05 µM | – | – | –
CONC/C=C/c1ccc(C2=N[C@@H](CC(=O)OC(C)(C)C)c3nnc(C)n3-c3sc(C)c(C)c32)cc1 [Compound 9065] | < 0.05 µM | B (20%<B<50%) | – | < 0.05 µM | – | –
Cc1sc2c(c1C)C(c1ccc(/C=C/CNO)cc1)=N[C@@H](CC(=O)OC1(C)CC1)c1nnc(C)n1-2 [Compound 9184] | < 0.05 µM | A (A<20%) | – | < 0.05 µM | – | –
Cc1sc2c(c1C)C(c1ccc(/C=C/C=N/O)cc1)=N[C@@H](CC(=O)OC(C)(C)C)c1nnc(C)n1-2 [Compound 9132-A] | < 0.05 µM | D (80%<D<100%) | – | 0.05 to 0.2 µM | – | –
Cc1sc2c(c1C)C(c1ccc(/C=C/C=N\O)cc1)=N[C@@H](CC(=O)OC(C)(C)C)c1nnc(C)n1-2 [Compound 9132-B] | 0.05 to 0.2 µM | D (80%<D<100%) | – | 0.05 to 0.2 µM | – | –
Cc1sc2c(c1C)C(c1ccc(C3CC3/C=N/O)cc1)=N[C@@H](CC(=O)OC(C)(C)C)c1nnc(C)n1-2 (stereo partly shown) [Compound 9148] | 0.05 to 0.2 µM | C (50%<C<80) | – | 0.05 to 0.2 µM | – | –
Cc1sc2c(c1C)C(c1ccc(/C=C/CN)cc1)=N[C@@H](CC(=O)OC1(C)CC1)c1nnc(C)n1-2 [Compound 9137] | < 0.05 µM | B (20%<B<50%) | – | < 0.05 µM | – | –
Cc1sc2c(c1C)C(c1ccc(/C=C/CN)cc1)=N[C@@H](Cc1nccs1)c1nnc(C)n1-2 [Compound 9136] | < 0.05 µM | C (50%<C<80) | < 0.05 µM | – | – | –
CC(=O)NN(C)CC#Cc1ccc(C2=N[C@@H](CC(=O)OC(C)(C)C)c3nnc(C)n3-c3sc(C)c(C)c32)cc1 [Compound 9047] | > 0.5 µM | – | – | < 0.05 µM | – | –
COC(=O)C[C@@H]1N=C(c2ccc(/C=C/CNO)c(F)c2)c2cc(OC)ccc2-n2c(C)nnc21 [Compound 9213] | < 0.05 µM | – | < 0.05 µM | – | – | –
Cc1sc2c(c1C)C(c1ccc(C#CCN)cc1)=N[C@@H](CC(=O)NN)c1nnc(C)n1-2 [Compound 9018] | > 0.5 µM | – | > 0.5 µM | – | – | –
Cc1sc2c(c1C)C(c1ccc(/C=C/CNO)cc1)=N[C@@H](Cc1nccs1)c1nnc(C)n1-2 [Compound 9166] | < 0.05 µM | A (A<20%) | – | < 0.05 µM | – | –
Cc1sc2c(c1C)C(c1ccc(C3CC3CNO)cc1)=N[C@@H](CC(=O)OC(C)(C)C)c1nnc(C)n1-2 (stereo partly shown) [Compound 9123] | < 0.05 µM | – | – | < 0.05 µM | – | –
Cc1sc2c(c1C)C(c1ccc(-c3cc(=O)n(C)o3)cc1)=N[C@@H](CC(=O)OC(C)(C)C)c1nnc(C)n1-2 [Compound 9053] | 0.05 to 0.2 µM | – | – | 0.05 to 0.2 µM | – | –
Cc1sc2c(c1C)C(c1ccc(-c3ccc(N)cc3)cc1)=NC(CC(=O)OC(C)(C)C)c1nnc(C)n1-2 (stereo not shown) [Compound 9086] | 0.2 to 0.5 µM | – | – | 0.2 to 0.5 µM | – | –
Cc1sc2c(c1C)C(c1ccc(-c3ccc(CN)cc3)cc1)=NC(CC(=O)OC(C)(C)C)c1nnc(C)n1-2 (stereo not shown) [Compound 9084] | 0.05 to 0.2 µM | – | – | 0.2 to 0.5 µM | – | –

Structure (SMILES) | IC50 (LNCaP; Homo sapiens) | BRD4 degradation of 22RV1 (200 nM 5 h) (BRD4) | IC50 (22RV1; Homo sapiens, 22Rv1, 72 h) | IC50 (22RV1; [1]) | IC50 (LNCaP) | IC50 (22RV1; 22Rv1 cells, 72 h compound treatment, CellTiterGlo)
CCNC(=O)C[C@@H]1N=C(c2ccc(C#CCN)cc2)c2cc(OC)ccc2-n2c(C)nnc21 [Compound 9051] | > 0.5 µM | – | > 0.5 µM | – | – | –
CONCC#Cc1ccc(C2=N[C@@H](CC(=O)OC(C)(C)C)c3nnc(C)n3-c3ccc(OC)cc32)cc1 [Compound 9078] | < 0.05 µM | B (20%<B<50%) | < 0.05 µM | – | – | –
Cc1sc2c(c1C)C(c1ccc(C3CC3CN)cc1)=N[C@@H](CC(=O)OC(C)(C)C)c1nnc(C)n1-2 (stereo partly shown) [Compound 9138] | > 0.5 µM | – | – | > 0.5 µM | – | –
Cc1sc2c(c1C)C(c1ccc(/C=C/CNC(=N)NO)cc1)=N[C@@H](CC(=O)OC(C)(C)C)c1nnc(C)n1-2 [Compound 9114] | – | C (50%<C<80) | – | 0.05 to 0.2 µM | – | –
COc1ccc2c(c1)C(c1ccc(/C=C/C=N/O)cc1)=N[C@@H](CC(=O)OC(C)(C)C)c1nnc(C)n1-2 [Compound 9222] | 0.05 to 0.2 µM | – | 0.2 to 0.5 µM | – | – | –
COc1ccc2c(c1)C(c1ccc(C#CCN)cc1)=N[C@@H](CC(=O)OC(C)(C)C)c1nnc(C)n1-2 [Compound 9080] | 0.05 to 0.2 µM | B (20%<B<50%) | < 0.05 µM | – | – | –
COc1ccc2c(c1)C(c1ccc(/C=C/CNO)cc1)=N[C@@H](CC(=O)OC(C)(C)C)c1nnc(C)n1-2 [Compound 9077] | < 0.05 µM | A (A<20%) | < 0.05 µM | – | – | –
Cc1sc2c(c1C)C(c1ccc(C#CCNO)cc1)=N[C@@H](Cc1nccs1)c1nnc(C)n1-2.Cl [Compound 9173] | < 0.05 µM | C (50%<C<80) | – | < 0.05 µM | – | –
Cc1sc2c(c1C)C(c1ccc(N3CC(=NO)C3)cc1)=N[C@@H](CC(=O)OC(C)(C)C)c1nnc(C)n1-2 [Compound 9090] | 0.05 to 0.2 µM | – | – | > 0.5 µM | – | –
COc1ccc2c(c1)C(c1ccc3c(c1)NC(=O)CC3)=N[C@@H](CC(=O)OC(C)(C)C)c1nnc(C)n1-2 [Compound 9211] | > 0.5 µM | – | > 0.5 µM | – | – | –
Cc1sc2c(c1C)C(c1ccc(-c3nc(CN)cs3)cc1)=N[C@@H](CC(=O)OC(C)(C)C)c1nnc(C)n1-2 [Compound 9074] | – | – | – | – | < 0.05 µM | 0.05 to 0.2 µM
CC(=O)N(O)C/C=C/c1ccc(C2=N[C@@H](CC(=O)OC(C)(C)C)c3nnc(C)n3-c3sc(C)c(C)c32)cc1 [Compound 9109] | 0.05 to 0.2 µM | C (50%<C<80) | – | 0.2 to 0.5 µM | – | –
CC(=O)ONC/C=C/c1ccc(C2=N[C@@H](CC(=O)OC(C)(C)C)c3nnc(C)n3-c3sc(C)c(C)c32)cc1 [Compound 9144] | < 0.05 µM | – | – | < 0.05 µM | – | –
CNC(=O)C#Cc1ccc(C2=N[C@@H](CC(=O)OC(C)(C)C)c3nnc(C)n3-c3sc(C)c(C)c32)cc1 [Compound 9104] | – | D (80%<D<100%) | – | < 0.05 µM | – | –
Cc1sc2c(c1C)C(c1ccc(C#CCON)cc1)=N[C@@H](CC(=O)OC(C)(C)C)c1nnc(C)n1-2 [Compound 9041] | < 0.05 µM | – | – | 0.05 to 0.2 µM | – | –
Cc1noc2c1-c1ccccc1C(c1ccc(C#CCN)cc1)=N[C@H]2Cc1nccs1 [Compound 9141] | > 0.5 µM | – | – | > 0.5 µM | – | –
Cc1sc2c(c1C)C(c1ccc(-c3ccc(CN)s3)cc1)=N[C@@H](CC(=O)OC(C)(C)C)c1nnc(C)n1-2 [Compound 9067] | 0.05 to 0.2 µM | – | – | 0.05 to 0.2 µM | – | –
Cc1sc2c(c1C)C(c1ccc(C#CCN)cc1)=N[C@@H](CC(=O)NO)c1nnc(C)n1-2 [Compound 9010] | > 0.5 µM | – | > 0.5 µM | – | – | –
